Experiment: Test as antiagglomerant (agglomerate inhibition) in stirred steel autoclave
Conditions: 5 000 ppm additive based on aqueous phase; water and white spirit 1:2; gas 1, 90 bar; 2° C. for 25 hours
Method: To investigate the inhibiting action of the compounds according to the invention, a stirred steel autoclave having temperature control, pressure and torque sensor having an internal volume of 450 ml was used. For investigations of kinetic inhibition, the autoclave was filled with distilled water and gas in a volume ratio of 20:80, and, for investigations of agglomerate inhibition, condensate was additionally added. Finally, natural gas was injected at different pressures.
Starting from a starting temperature of 17.5° C., the autoclave was cooled to 2° C. within 2 h, then stirred at 2° C. for 18 h and heated back up to 17.5° C. within 2 h. An initial pressure decrease corresponding to the thermal compression of the gas is observed. When the formation of gas hydrate nuclei occurs during the supercooling time, the pressure measured falls, and an increase in the torque measured and a slight increase in temperature can be observed. Without inhibitor, further growth and increasing agglomeration of the hydrate nuclei lead rapidly to a further increase in the torque. When the mixture is heated, the gas hydrates decompose, so that the starting state of the experimental series is attained.
On the other hand, the torque measured in the autoclave serves as a parameter for the agglomeration of the hydrate crystals. The pressure drop measured (Δp) allows a direct conclusion on the amount of hydrate crystals formed.
Gas 1: 79.3% methane, 10.8% ethane, 4.8% propane, 1.9% butane, 1.4% carbon dioxide, 1.8% nitrogen. Supercooling below the equilibrium temperture of hydrate formation at 50 bar: 12° C.
In order to test the effectiveness as agglomerate inhibitors, the test autoclave used above was initially charged with water and white spirit (20% of the volume in a ratio of 1:2) and, based on the aqueous phase, 5 000 ppm of the particular additive were added. At an autoclave pressure of 90 bar using gas 1 and a stirrer speed of 5 000 rpm, the temperature was cooled from initially 17.5° C. within 2 hours to 2° C., then the mixture was stirred at 2° C. for 25 hours and heated again. The pressure drop caused by hydrate formation and the resulting torque at the stirrer, which is a measure of the agglomeration of the gas hydrates, were measured.

Compound	Pressure drop Δ p	Temperature rise Δ T	Torque Mmax
CCCCC(CC)COC(=O)COCC[N+](C)(CCOCC(=O)OCC(CC)CCCC)C1CCCC1.COS(=O)(=O)[O-] (stereo not drawn) [Example 46]	15.1 bar	0.3 K	0.3 Ncm
CCCCC(CC)COC(=O)COCC[N+](C)(CCOCC(=O)OCC(CC)CCCC)C1CCCCC1.COS(=O)(=O)[O-] (stereo not drawn) [Example 48]	15.3 bar	0.7 K	0.4 Ncm
CCCCC(CC)COC(=O)COCC[N+](C)(CCCC)CCOCC(=O)OCC(CC)CCCC.COS(=O)(=O)[O-] (stereo not drawn) [Example 50]	10.1 bar	0.1 K	0.2 Ncm
